From patent US4361703A, “Para-amino(or nitro)phenyl N-acetylaminothioalkanoates” (priority 1977, dated 1982)

Assays:
[1] = Serum "free NAPA" in beagle dogs; format: in vivo; settings: oral
Experimental: (B)--Investigation of Serum Concentrations in Beagle Dogs
6 Beagle dogs (3 males and 3 females) were dosed once a day (at 08.00 hrs. each day) for 23 days with Compound A, suspended in 1% gum tragacanth, which was administered orally by oesophageal tube, at a rate of either 432 mg/kg (2 dogs, 1 male and 1 female) or 675 mg/kg (4 dogs, 2 male and 2 female). During this period the dogs received their usual food and water until 16.00 hrs. on the day before the test; but from that time until 08.00 hrs. on the day of the test they were given no food, although they received their usual drinking water. The usual dosage of Compound A was however given to the animal at 08.00 hrs. on the day of the test.
Without any further feeding, serum samples were then taken from each animal 2, 4 and 6 hours after the oral administration of Compound A, thus at 10.00 hrs., 12.00 hrs. and 14.00 hrs. on the day of the test. After the 6-hour serum sample had been taken, the animals received their usual food for a while; but they were again made to fast for 12 hours from 20.00 hrs. on the day of the test until 08.00 hrs. on the following day, when the last, 24-hour serum sample was taken.
A direct determination similar to that used in Determination 2 above gave results for "free NAPA" as set out in Table IV below: […]

[2] = system: yeast-inflamed hind-paw pain-threshold; test: Analgesic activity, Randall-Selitto test in rats; format: in vivo, female Charles River rats; settings: for P of pain-threshold (t-test versus control): 2 millimoles/kg oral
Experimental: (C)--Investigation of Analgesic Activity in Rats
A control group received only the gum tragacanth vehicle.
In order to evaluate the effect of the treatment upon pain-thresholds, pressure was applied both to the injected hind-paw and to the other non-injected hind-paw. The pain-threshold was noted as the pressure at which the rat flinched, measured using an Ugo Basile "Analgesimeter" for both hind-paws of each rat at intervals of 1 hour, 3 hours, 5 hours and 22 hours after the administration, and expressed as the percentage of the pain-threshold pressure for the injected (and thus inflamed) hind-paw as against the non-injected (and thus healthy) hind-paw.

[3] = system: yeast-induced hyperthermia; test: Antipyretic activity, yeast-induced hyperthermia test in rats; format: in vivo, male Charles River rats; settings: compared with NAPA, equimolar basis, oral
Experimental: (D)--Investigation of Antipyretic Activity in Rats
Using the conventional procedure for the yeast-induced hyperthermia test, several groups of 10 male Charles River rats were given a subcutaneous injection of dried yeast. Immediately after the injection they were then medicated orally with respectively:
100 mg/kg of N-acetyl-para-aminophenol (NAPA);
80 mg/kg of NAPA+43.0 mg/kg of Compound A; and
60 mg/kg of NAPA+86.0 mg/kg of Compound A.
In the mixtures the amount of Compound A, N-acetyl-para-aminophenyl N'-acetyl-D,L-methionate, used was in each case equimolar with the 10%, 20% or 40% reduction in the amount of NAPA, so that all the medications were carried out at a level equivalent to 100 mg/kg of NAPA.

[4] = in vivo; settings: mouse, in vivo, po
Experimental: (E)--Investigation of Acute Oral Toxicity in Mice
Charles River (CD-1 COBS) albino mice, 20-22 g in weight, were kept for some days in an air-conditioned animal house and fed with a standard diet (sterile VAR granules). They were fasted overnight before experiment, with water ad libitum. 15 Male mice and 15 female mice were used for each experiment.
N-Acetyl-para-aminophenol (NAPA) and N-acetyl-para-aminophenyl N'-acetyl-D,L-methionate (Compound A) were then administered to the mice, orally, as a suspension (shaken continuously with an electromagnetic agitator) in 5% gum arabic at a volume of 0.02 ml/g, either individually or in variously proportioned mixtures and at different dose levels, as shown in Table VII below.
A control group received only the 5% gum arabic vehicle.

[5] = Acute oral toxicity in rats; format: in vivo; settings: rat, in vivo, po; for mortality at 24 h / mortality at 48 h / mortality at 72 h / mortality at 96 h / mortality at 120 h / mortality at 144 h / mortality at 168 h: Percentage Mortality
Experimental: (§1) (F)--Investigation of Acute Oral Toxicity in Rats
(§2) The investigation was carried out upon groups of 10 male and 10 female albino rats (Charles River CD-1 COBS) of 80-100 g body weight. […] Before the experiment they were fasted overnight, with water ad libitum. NAPA and Compound A were then administered orally by oesophageal intubation as suspensions (continuously shaken with an electromagnetic agitator) in 1% gum arabic at a volume of 2 ml/100 g body weight, and at dose levels of 1, 2, 4 and 8 g/kg. A control group received orally, under the same experimental conditions, merely 2 ml/100 g of the suspension vehicle. The rats were then kept under observation during seven days, while their behaviour patterns were observed and the mortality recorded

[6] = system: albino rats (Charles River CD-1 COBS); test: Acute oral toxicity in rats; format: in vivo
Experimental: as §1, §2

[7] = mouse, in vivo, po
Experimental: (A)--Investigation of Serum Concentrations in Mice
36 Charles River COBS mice (18 males and 18 females) weighing 30 g each were deprived of food for 16 hours before the trial but were given their usual drinking water. Three groups, each containing 6 males and 6 females, received a dosage of 1 ml/100 g body weight per mouse, orally by stomach tube, of a suspension in 1% gum tragacanth of respectively:
Group X: 500 mg/kg of N-acetyl-para-aminophenol
A blood sample was taken by throat-slitting from one male and one female from each Group at each study time, i.e. 1/2, 1, 2, 4 and 24 hours after the oral administration.
At times 1/2, 1, 2 and 4 hours, each serum sample was divided into three 0.1 ml trial samples for the following three determinations:

In the case of `CSCCC(NC(C)=O)C(=O)Oc1ccc(NC(C)=O)cc1` (racemic) [Compound A, N-acetyl-para-aminophenyl N'-acetyl-D,L-methionate], the hydrolysis in vivo ([1]; 23 days) is reported as “easily hydrolyzed”, the “recovery of "free NAPA" in serum, time” value ([1]; last dose after 23 days) is reported as “up to 6 hours” and the “Percentage Pain-Threshold (injected vs non-injected paw)” value ([2]; 1 millimole/kg oral (NAPA 151, A 324 mg/kg), 1 hr. (3.5 hrs. from yeast)) is reported as 44 ± 3.8 Percentage. For the same compound, the “Percentage Pain-Threshold (injected vs non-injected paw)” value ([2]; 1 millimole/kg oral (NAPA 151, A 324 mg/kg), 3 hrs. (5.5 hrs. from yeast)) was 41 ± 2.9 Percentage, the “Percentage Pain-Threshold (injected vs non-injected paw)” value ([2]; 1 millimole/kg oral (NAPA 151, A 324 mg/kg), 5 hrs. (7.5 hrs. from yeast)) was 50 ±4.2 Percentage and the “Percentage Pain-Threshold (injected vs non-injected paw)” value ([2]; 1 millimole/kg oral (NAPA 151, A 324 mg/kg), 22 hrs. (24.5 hrs. from yeast)) was 50 ± 2.4 Percentage. For the same compound, the analgesic effect ([2]; 2 millimoles/kg level, oral) was “statistically-significant analgesic effect at the 2 millimoles/kg level, which is at least as great as N-acetyl-para-aminophenol (NAPA)”, the “Percentage Pain-Threshold (injected vs non-injected paw)” value ([2]; 2 millimoles/kg oral (NAPA 302, A 648 mg/kg), 1 hr. (3.5 hrs. from yeast)) was 53 ± 3.3 Percentage and the “Percentage Pain-Threshold (injected vs non-injected paw)” value ([2]; 2 millimoles/kg oral (NAPA 302, A 648 mg/kg), 3 hrs. (5.5 hrs. from yeast)) was 54 ±3.2 Percentage. The “Percentage Pain-Threshold (injected vs non-injected paw)” value ([2]; 2 millimoles/kg oral (NAPA 302, A 648 mg/kg), 5 hrs. (7.5 hrs. from yeast)) was 59 ± 2.7 Percentage, the “Percentage Pain-Threshold (injected vs non-injected paw)” value ([2]; 2 millimoles/kg oral (NAPA 302, A 648 mg/kg), 22 hrs. (24.5 hrs. from yeast)) was 54 ± 1.9 Percentage and the “P of pain-threshold (t-test versus control)” value ([2]; 1 hr.) was < 0.02. The “P of pain-threshold (t-test versus control)” value ([2]; 3 hrs.) was < 0.02, the “P of pain-threshold (t-test versus control)” value ([2]; 5 hrs.) was < 0.01 and the “P of pain-threshold (t-test versus control)” value ([2]; 22 hrs.) was < 0.01. The antipyretic effect [3] was “virtually identical upon an equimolar basis of comparison with that of the well-tried analgesic NAPA”, the LD50 at 24 h [4] was ≥ 4000 mg/kg and the LD50 at 168 h [4] was ≥ 4000 mg/kg. The LD50 at 24 h [5] was > 8000 mg/kg, the LD50 at 168 h [5] was > 8000 mg/kg and the mortality at 24 h ([5]; 1000 mg/kg) was 0%. The mortality at 48 h ([5]; 1000 mg/kg) was 0%, the mortality at 72 h ([5]; 1000 mg/kg) was 0% and the mortality at 96 h ([5]; 1000 mg/kg) was 0%. It also gave a mortality at 120 h ([5]; 1000 mg/kg) of 0%, a mortality at 144 h ([5]; 1000 mg/kg) of 0% and a mortality at 168 h ([5]; 1000 mg/kg) of 0%. It also gave a mortality at 24 h ([5]; 2000 mg/kg) of 0%, a mortality at 48 h ([5]; 2000 mg/kg) of 0% and a mortality at 72 h ([5]; 2000 mg/kg) of 0%. It also gave a mortality at 96 h ([5]; 2000 mg/kg) of 0%, a mortality at 120 h ([5]; 2000 mg/kg) of 0% and a mortality at 144 h ([5]; 2000 mg/kg) of 0%. The mortality at 168 h ([5]; 2000 mg/kg) was 0%, the mortality at 24 h ([5]; 4000 mg/kg) was 0% and the mortality at 48 h ([5]; 4000 mg/kg) was 0%. For the same compound, the mortality at 72 h ([5]; 4000 mg/kg) was 0%, the mortality at 96 h ([5]; 4000 mg/kg) was 0% and the mortality at 120 h ([5]; 4000 mg/kg) was 0%. The mortality at 144 h ([5]; 4000 mg/kg) was 0%, the mortality at 168 h ([5]; 4000 mg/kg) was 0% and the mortality at 24 h ([5]; 8000 mg/kg) was 0%. The mortality at 48 h ([5]; 8000 mg/kg) was 0%, the mortality at 72 h ([5]; 8000 mg/kg) was 0% and the mortality at 96 h ([5]; 8000 mg/kg) was 0%. It also gave a mortality at 120 h ([5]; 8000 mg/kg) of 0%, a mortality at 144 h ([5]; 8000 mg/kg) of 0% and a mortality at 168 h ([5]; 8000 mg/kg) of 0%. The “toxicity compared with NAPA” value ([6]; oral, rats) was “far less toxic than NAPA”, the “mortality (in words)” value ([6]; oral, rats, 1-8 g/kg) was “no mortality was recorded at any of the different dose levels” and the “mortality (in words)” value ([6]; rat, in vivo, po) was “did not induce any mortality at dose levels up to 8 g/kg”. The “serum "total" or "enzymatic" NAPA profile” value [7] was “does not however give the acute peak observed at one-half an hour after the administration of NAPA+methionine”.
